Measurements as given in patent US12655091B2, “N-benzyl-alpha-aminoamides as anaphase-promoting complex/cyclosome (APC/C) inhibitors” (CONSEJO SUPERIOR DE INVESTIGACIONES CIENTÍFICAS (CSIC), priority 2020, dated 2026).
Values joined by “and” are separate entries in the source; they are usually repeats but may differ in a detail not shown here. Equal entries are not always repeated. “Also recorded” adds a separate entry of the source. Where two headings read alike, the source gives them in different places.

How the values were obtained:
[1] = target: T1, APC/C activation by Cdc20 (Homo sapiens, UniProt Q12834); assay: Western blot of Cyclin B1 levels (inhibition of APC/C activation by Cdc20); assay type: cell-based; details: HCC-38 cells, FIG. 9
T1 construct: endogenous in cells; the method paragraph speaks of HeLa cells
T1 sequence (Q12834 whole entry): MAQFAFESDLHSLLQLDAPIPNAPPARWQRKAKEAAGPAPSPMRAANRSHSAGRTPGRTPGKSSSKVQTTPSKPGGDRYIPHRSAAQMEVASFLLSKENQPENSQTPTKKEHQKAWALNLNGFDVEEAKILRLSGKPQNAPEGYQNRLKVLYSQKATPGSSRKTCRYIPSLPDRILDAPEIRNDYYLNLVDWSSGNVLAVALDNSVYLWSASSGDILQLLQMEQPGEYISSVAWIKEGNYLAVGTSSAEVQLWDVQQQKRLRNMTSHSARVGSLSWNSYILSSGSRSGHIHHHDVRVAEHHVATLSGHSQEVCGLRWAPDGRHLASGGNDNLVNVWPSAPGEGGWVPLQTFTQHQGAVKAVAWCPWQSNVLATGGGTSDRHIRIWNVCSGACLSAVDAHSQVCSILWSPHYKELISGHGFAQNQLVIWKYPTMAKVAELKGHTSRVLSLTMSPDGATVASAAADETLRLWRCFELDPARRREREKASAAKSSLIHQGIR
Procedure: FIG. 9. […] Consequently, non-ubiquitylated Cyclin B escapes degradation by the proteasome. […] HCC-38 cells at a density of 200,000 cells per well were used in this study.
The entirety of the following procedure was carried out under aseptic conditions. HeLa cells were counted and seeded into clear bottom 6-well plates (Greiner Bio-One) at a density of 200,000 cells/well in a volume of 2 ml and placed in an incubator (37° C., 5% CO2) overnight. The following day medium was aspired and 1.5 ml of treatment was added to wells. Cells were treated with controls (medium alone) and compounds. All stock solutions of the small compounds were prepared by resuspension of the solid in DSMO, then diluted in medium to the final concentrations being tested. The effect of these compounds on mitosis was analysed by measuring Cyclin B1 levels, a downstream target of APC/C-Cdc20. Cells were incubated and had 24 hours treatment exposure. Plates were then placed on ice and solution from each well was aspired. […]

[2] = tested on: HCC-38 triple negative breast cancer cells; assay: Clonogenic assay of HCC-38 cells; assay type: cell-based; details: HCC-38, 24 hours treatment, stained after 12 days, FIG. 7
Procedure: FIG. 7. Clonogenic assay of HCC-38 cells treated with DMSO (1.2% v/v), the Mps1 kinase inhibitor Reversine, the Cdc20 binder Apcin and compound o-TFB-Tyr. The clones were stained after 12 days incubation at 37 Celsius. Following treatment of the HCC38 cells with the compounds for 24 hours, the medium was exchanged every 48 hrs.
The entirety of the following procedure was carried out under aseptic conditions. HeLa cells were counted and seeded into clear bottom 6-well plates (Greiner Bio-One) at density 500 cells/well (250 cells/ml). 2 ml of cells were added to each well and placed in the incubator (37° C., 5% CO2) overnight. The following day medium was aspired and 1.5 ml of treatment was added to wells. Cells were treated with control (medium alone) and compounds. All stock solutions of compounds were prepared by resuspension of the solid in DMSO, then diluted in medium to the final concentrations being tested. HeLa cells viability was measured using clonogenic assay, a cell survival-based assay that determines cell reproductive death after treatment with cytotoxic agents. Cells were incubated and had 72 hours treatment exposure. […]
Each well of the clonogenic assay was then scanned using an Axiozoom Zeiss Axioplan fluorescence microscope equipped for DIC imaging and fluorescence imaging and analysed using the ImageJ2 image-processing software (Fiji). […]

[3] = Kinetic solubility, turbidimetric method; assay type: physicochemical
Procedure: Kinetic solubility. This is a valuable initial screen that was carried out prior to starting ADME test in order to identify potential issues and to determine appropriate concentration ranges. Kinetic solubility was measured using a turbidimetric method.

[4] = Intestinal permeability assay in Caco-2 cells; assay type: in vitro ADME, human; details: human
Procedure: (§1) This was determined using an intestinal permeability assay in Caco-2 cells, a human colorectal adenocarcinoma cell line (see FIG. 4).

Caco-2 cells = assay: Intestinal permeability assay in Caco-2 cells; assay type: in vitro ADME, human
Procedure: as §1

[5] = Metabolic stability test (liver microsomes); assay type: in vitro ADME, Human
Text: The liver is the major drug metabolising organ for the large majority of pharmaceutical drugs. A good in vitro model to investigate drug metabolism is based on the use of microsomes, a subcellular fraction of the liver.

CYP3A4 = CYP3A4 (Homo sapiens, UniProt P08684); assay: Cytochrome P450 inhibition IC50 determination (isoform CYP3A4); assay type: in vitro ADME; details: for inhibition at 0.1 µM / inhibition at 0.25 µM / inhibition at 1 µM / inhibition at 2.5 µM / inhibition at 10 µM / inhibition at 25 µM: human; for inhibition at 0.1 µM: CYP3A4, 0.1 μM; for inhibition at 0.25 µM: CYP3A4, 0.25 μM; for inhibition at 1 µM: CYP3A4, 1 μM; for inhibition at 2.5 µM: CYP3A4, 2.5 μM; for inhibition at 10 µM: CYP3A4, 10 μM; for inhibition at 25 µM: CYP3A4, 25 μM
Sequence of CYP3A4 (P08684 whole entry, canonical isoform): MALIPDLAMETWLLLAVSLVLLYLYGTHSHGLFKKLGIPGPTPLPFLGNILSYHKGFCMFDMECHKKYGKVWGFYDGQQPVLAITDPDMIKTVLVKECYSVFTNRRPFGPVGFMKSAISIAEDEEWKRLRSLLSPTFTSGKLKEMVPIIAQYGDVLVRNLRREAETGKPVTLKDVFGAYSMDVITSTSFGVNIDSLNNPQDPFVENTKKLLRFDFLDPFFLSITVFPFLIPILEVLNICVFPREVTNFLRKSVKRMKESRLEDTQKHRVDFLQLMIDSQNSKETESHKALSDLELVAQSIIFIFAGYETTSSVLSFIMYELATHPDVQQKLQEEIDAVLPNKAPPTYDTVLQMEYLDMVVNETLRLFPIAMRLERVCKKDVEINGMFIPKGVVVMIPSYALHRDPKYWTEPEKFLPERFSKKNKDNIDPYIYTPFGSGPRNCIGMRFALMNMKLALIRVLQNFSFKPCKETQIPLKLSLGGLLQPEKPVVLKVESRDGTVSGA
Text: Two thirds of drugs cleared by metabolism are metabolised at least in part by the cytochrome P450 (CYP) enzymes with the isoform CYP3A4 accounting for almost 50% of all CYP activity. For this reason, we tested whether CYP3A4 is implicated in the clearance of o-TFB-Tyr. […]

[6] = Plasma protein binding assay (human); assay type: in vitro ADME; details: plasma spiked 1 side; for fraction unbound: plasma
Text: (§2) Non-specific plasma protein binding can greatly affect the extent of free drug concentration which may influence the lead compound's subsequent inhibitory potential (see table 6 below).

plasma protein [7] = assay: Plasma protein binding assay (human); assay type: in vitro ADME
Text: as §2

[8] = Plasma protein binding assay (mouse); assay type: in vitro ADME; details: plasma spiked 1 side; for fraction unbound: plasma
Text: as §2

plasma protein [9] = assay: Plasma protein binding assay (mouse); assay type: in vitro ADME
Text: as §2

HeLa cells = assay: MTT cytotoxicity assay in HeLa cells; assay type: cell-based
Procedure: The entirety of the following protocol was carried out under aseptic conditions. HeLa cells were cultured in Dulbecco's Modified Eagle's Medium (DMEM) supplemented with 10% Fetal Bovine Serum (FBS) (Sigma F7524). Cells were counted and seeded into clear bottom 96-well plates (Greiner Bio-One) at density 6,000 cells/well. 100 μl of cells were added to each well and placed in the incubator overnight. The following day medium was aspired and 100 μL of treatment was added to wells. Cells were treated with controls (medium alone, Reversine 5 μM, Apcin 25 μM). […]
In vitro cytotoxic analysis involved quantitative measurements of cell proliferation and the subsequent assessment of the relative toxicity of the compounds. (3-(4,5-Dimethylthiazol-2-yl)-2,5-Diphenyltertrazolium Bromide (MTT) is a widely utilised cytotoxic assay that measures cellular metabolic activity as an indicator for cell viability, proliferation and cytotoxicity from the reduction of water soluble yellow tetrazole MTT to insoluble purple formazan crystals by mitochondrial dehydrogenases. The insoluble purple crystalline product was dissolved in DMSO and the resulting coloured solution quantified by measuring the absorbance (570 nm). Reduction can only occur when mitochondrial reductive enzymes are active, thus a direct correlation to the number of viable cells. […]

[10] = kinetic solubility, turbidimetric
[11] = probe testosterone, read-out: % inhibition with substrate testosterone
[12] = read-out: % inhibition with substrate midazolam
[13] = read-out: Fraction unbound Replicate 1
[14] = read-out: Fraction unbound Replicate 2
[15] = read-out: Fraction unbound Replicate 3
[16] = read-out: Mean fraction unbound

Q: For `Cc1ncc([N+](=O)[O-])n1CCOC(=O)NC(Nc1ncccn1)C(Cl)(Cl)Cl` (stereo not shown) [Apcin, reference compound], which “Inhibition of Cyclin B ubiquitylation by APC/C / APC/C activation by Cdc20” value [1] is on record?
A: comparatively less effective than compound o-TFB-Tyr

Q: With `c1nc2nc(Nc3ccc(N4CCOCC4)cc3)nc(NC3CCCCC3)c2[nH]1` [Reversine, reference compound] as the compound, how does the “Number of clones” value [2] read?
A: lower number of triple negative breast cancer cell clones

Q: Which “Solubility in aqueous solutions” value [3] does the source give for `N[C@@H](Cc1ccc(O)cc1)C(=O)NCc1ccccc1C(F)(F)F` [o-TFB-Tyr, (2S)-2-amino-N-[2-(trifluoromethyl)benzyl]-3-[4-(hydroxy)phenyl]propanamide] here?
A: readily soluble in aqueous solutions

Q: What about the “Estimated Precipitation Range, Calculated mid-range” value [3, 10] of the same compound?
A: >100 µM

Q: And the “Estimated Precipitation Range, Lower bound” value [3, 10]?
A: 100 µM

Q: And the “Estimated Precipitation Range, Upper bound” value [3, 10]?
A: >100 µM

Q: And the recovery ([4]; Caco-2, Caco2, A to B, read-out: Direction A to B Mean % recovery)?
A: 62.8%

Q: And the recovery ([4]; Caco-2, Caco2, B to A, read-out: Direction B to A Mean % recovery)?
A: 88.9%

Q: What about the efflux ratio ([4]; Caco-2, Caco2, read-out: Efflux ratio (Mean Papp B to A/Mean Papp A to B)) of the same compound?
A: 0.862

Q: And the “Active transport by membrane proteins such as ABC transporters” value (Caco-2 cells; Caco2)?
A: not actively transported

Q: What about the “Diffusion across the membrane” value (Caco-2 cells; Caco2) of the same compound?
A: diffuses freely across the semipermeable membrane in both directions

Q: What about the Direction A to B Mean Papp (Caco-2 cells; Caco2, A to B) of the same compound?
A: 22.1 ×10⁻⁶ cm/s

Q: And the Direction B to A Mean Papp (Caco-2 cells; Caco2, B to A)?
A: 19.1 ×10⁻⁶ cm/s

Q: And the “Metabolic stability” value ([5]; Human microsomes)?
A: stable

Q: What about the “Compound remaining (% of 0 min)” value ([5]; Human, 0 min) of the same compound?
A: 100 % of 0 min

Q: And the “Compound remaining (% of 0 min)” value ([5]; Human, 5 min)?
A: 107 % of 0 min

Q: And the “Compound remaining (% of 0 min)” value ([5]; Human, 15 min)?
A: 43.7 % of 0 min

Q: And the “Compound remaining (% of 0 min)” value ([5]; Human, 30 min)?
A: 19.3 % of 0 min

Q: And the “Compound remaining (% of 0 min)” value ([5]; Human, 45 min)?
A: 8 % of 0 min and 8.23 % of 0 min

Q: And the “Compound remaining (% of 0 min), Control” value ([5]; Human, Control incubation)?
A: 89.8 % of 0 min

Q: And the “IC50 compared with control compounds” value (CYP3A4; CYP3A4, midazolam and testosterone as substrates)?
A: much higher than that of controls compounds

Q: And the inhibition at 0.1 µM (CYP3A4; [11])?
A: -0.99%

Q: And the inhibition at 0.25 µM (CYP3A4; [11])?
A: 0.136%

Q: What about the inhibition at 1 µM (CYP3A4; [11]) of the same compound?
A: 4.21%

Q: What about the inhibition at 2.5 µM (CYP3A4; [11]) of the same compound?
A: 49%

Q: And the inhibition at 10 µM (CYP3A4; [11])?
A: 77.3%

Q: And the inhibition at 25 µM (CYP3A4; [11])?
A: 89.5%

Q: And the inhibition at 0.1 µM (CYP3A4; [12])?
A: 13.7%

Q: What about the inhibition at 0.25 µM (CYP3A4; [12]) of the same compound?
A: 22.5%

Q: What about the inhibition at 1 µM (CYP3A4; [12]) of the same compound?
A: 47.5%

Q: And the inhibition at 2.5 µM (CYP3A4; [12])?
A: 65.6%

Q: What about the inhibition at 10 µM (CYP3A4; [12]) of the same compound?
A: 84.4%

Q: What about the inhibition at 25 µM (CYP3A4; [12]) of the same compound?
A: 91.1%

Q: And the recovery [6]?
A: 101%

Q: And the fraction unbound [6, 13]?
A: 0.352

Q: And the fraction unbound [6, 14]?
A: 0.328

Q: And the fraction unbound [6, 15]?
A: 0.304

Q: What about the fraction unbound [6, 16] of the same compound?
A: 0.328

Q: What about the “Non-specific plasma protein binding” value (plasma protein [7]) of the same compound?
A: absence of non-specific plasma protein binding

Q: What about the recovery [8] of the same compound?
A: 102%

Q: What about the fraction unbound [8, 13] of the same compound?
A: 0.28

Q: And the fraction unbound [8, 14]?
A: 0.28

Q: What about the fraction unbound [8, 15] of the same compound?
A: 0.301

Q: And the fraction unbound [8, 16]?
A: 0.287

Q: What about the “Non-specific plasma protein binding” value (plasma protein [9]) of the same compound?
A: absence of non-specific plasma protein binding

Q: What about the “Relative cytotoxicity compared with other compounds” value (HeLa cells; MTT, FIGS. 5 and 6) of the same compound?
A: higher cytotoxic effect

Q: And the “Cytotoxic activity, concentration range” value (HeLa cells; cytotoxicity and clonogenic studies)?
A: 200 to 10 μM

Q: And the “Number of clones” value [2]?
A: lower number of triple negative breast cancer cell clones

Q: And the “Inhibition of Cyclin B ubiquitylation by APC/C / APC/C activation by Cdc20” value [1]?
A: confirmed the inhibitory effect of this compound on APC/C activation by Cdc20; also recorded: confirmed the inhibition of APC/C activation by Cdc20; also recorded: causes inhibition of Cyclin B ubiquitylation by APC/C
